Reference: US20250000855A1, “USE OF APOMORPHINE AS THERAPEUTIC AGENT FOR NECROPTOSIS-RELATED DISEASES” (INDUSTRY-ACADEMIC COOPERATION FOUNDATION, YONSEI UNIVERSITY, priority 2021, published 2025)

Legend:
THP-1 cells = assay: Propidium iodide (PI) uptake / cell membrane integrity in TBZ-induced necroptosis; type: cell-based, human
Method: Cells were pretreated with Z-VAD (invivoGen, tlrl-vad) and a compound for 1 hour, and necroptosis was induced with TNF-α (ATGen, TNF0501) and BV6 (Biovision, B1332-5) for the indicated time. The prepared cells were appropriately treated according to analysis (Z-VAD: carbobenzoxy-valyl-alanyl-aspartyl, TNF-α: tumor necrosis factor-α, BV6: 4,4′-(1,6-hexanediyl)bis[N-methyl-L-alanyl-(2S)-2-cyclohexylglycyl-L-prolyl-β-phenyl-L-phenylalaninamide)
Cells were plated in a flat, transparent-bottomed, black-walled 96-well plate, and subjected to 7-hour chemical treatment and necroptosis induction, and then PI (BD Biosciences, 556463) was added to a final concentration of 50 μg/ml. After incubation for 10 minutes under the original culture conditions, the cells were centrifuged at 400×g for 5 minutes. The emission wavelength at 617 nm following excitation at 530 nm was measured by real-time fluorescence monitoring on a Varioskan Flash 3001 plate reader. Data collection was performed at 37° C. (FIG. 1A).
As a first screening process, to investigate changes in cell membrane integrity by measuring PI uptake (Experimental Method 1-8), a compound in which the PI uptake had been reduced to less than 30% of the signal intensity upon TBZ treatment was selected.
After treating TBZ+APO-treated THP-1 cells with PI for 10 minutes, the PI taken up by the cells was measured on a microplate reader. […]

[1] = biological target: T1, MLKL N-term domain (amino acids 1-154) (Homo sapiens, UniProt Q8NB16); assay: Surface plasmon resonance (SPR) analysis, binding to MLKL N-term domain; settings: MLKL N-term domain immobilized on CM5 chip, Biacore T200, 25° C., 10 mM HEPES pH 7.4
T1 construct: MLKL N-term (amino acids 1-154) protein that had been purified in a laboratory; made in house
T1 sequence (Q8NB16 1-154): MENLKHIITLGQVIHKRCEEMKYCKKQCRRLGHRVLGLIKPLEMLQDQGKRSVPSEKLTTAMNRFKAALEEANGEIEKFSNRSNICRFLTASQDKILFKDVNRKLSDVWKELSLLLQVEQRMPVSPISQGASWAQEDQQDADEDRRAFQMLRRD
Method: The interaction between MLKL and apomorphine (=APO) was detected through surface plasmon resonance (SPR) analysis using Biacore T200 (GE Healthcare). For pH scouting, a buffer consisting of 10 mM sodium acetate (pH 4.0 to 6.0) was used. MLKL protein (Abcam, ab241453), and MLKL N-term (amino acids 1-154) protein that had been purified in a laboratory were immobilized on the surface of a sensor chip CM5 (GE Healthcare) under scouted buffer conditions. To deduce an Rligand value, a coupling process was performed based on the molecular weights of MLKL, MLKL N-term domain (MW ligand), and APO (MW analyte). Oxidized (24 hr, RT incubation) and reduced (+DTT(DL-dithiothreitol)) forms of APO were injected into a running buffer (flow rate: 10 μl/min) consisting of 10 mM HEPES (pH 7.4) at 25° C. A sensorgram was recorded and analyzed in real time using control software provided by the Biacore T200 system itself. Six or more concentrations of APO were used in combination, and each KD value was derived. All run data was calculated using BIAevaluation Software (GE Healthcare).
SPR analysis was used to analyze the interaction pattern between APO and the MLKL protein (Experimental Method 1-10). […] Here, the analysis was performed by binding MLKL and the MLKL N-term domain protein immobilized on a CM5 chip with APO having six concentrations.

With `CN1CCc2cccc3c2[C@H]1Cc1ccc(O)c(O)c1-3` [APO, apomorphine] the IC50 (THP-1 cells; Homo sapiens, THP-1, concentration-dependent APO treatment, FIG. 1D, read-out: IC50, change in cell membrane integrity) was 5700 nM, the PI uptake rate (THP-1 cells; THP-1 cells treated with TBZ (TNF-α+BV6+Z-VAD)+APO, PI 10 minutes, FIG. 1A) was “effectively reduced” and the Kd [1] was 62.5 nM.
